Laboratory results reported in US20260315398A1, “POLYPEPTIDE DRUG-CONTAINING SUSTAINED-RELEASE MICROSPHERE, PHARMACEUTICAL FORMULATION THEREOF, PREPARATION METHOD THEREFOR, AND USE THEREOF” (HUILLY PHARMA CO., LTD, priority 2023, published 2026).

Key:
[1] = high-concentration conditions; cited from earlier work
[2] = Effect Simulation of Aggregation Inhibitor, AFM observation of fibrils (FIG. 6); format: physicochemical; conditions: aggregation inhibitors sucrose (1) and phenol (2); inhibitor:drug:water 1:3:100, lyophilized, PBS pH 7.4, AFM
Method: In this embodiment, simulation experiments of anti-aggregation effects are carried out using liraglutide (Lira) and semaglutide (Sema) as examples, respectively, with specific methods as follows.
A mixture of aggregation inhibitors (aggregation inhibitor 1 is sucrose, and aggregation inhibitor 2 is phenol), a drug substance, and deionized water are mixed at a weight ratio of 1:3:100 and subsequently lyophilized. PBS (pH 7.4) is added dropwise to the lyophilized drug powder to simulate gradual infiltration of the drug inside THE microsphere. Afterwards, a portion of the drug is dissolved in the PBS, and an atomic force microscope (AFM) is used to observe whether fibrils are formed by the drug and to simulate structural changes of the drug during the slow permeation process inside the microsphere.

inhibition of fibrillation by aggregation inhibitor [2]: significantly inhibit fibrillation
SMILES: CCCCCCCCCCCCCCCC(=O)N[C@@H](CCC(=O)NCCCC[C@H](NC(=O)[C@H](C)NC(=O)[C@H](C)NC(=O)[C@H](CCC(N)=O)NC(=O)CNC(=O)[C@H](CCC(=O)O)NC(=O)[C@H](CC(C)C)NC(=O)[C@H](Cc1ccc(O)cc1)NC(=O)[C@H](CO)NC(=O)[C@H](CO)NC(=O)[C@@H](NC(=O)[C@H](CC(=O)O)NC(=O)[C@H](CO)NC(=O)[C@@H](NC(=O)[C@H](Cc1ccccc1)NC(=O)[C@@H](NC(=O)CNC(=O)[C@H](CCC(=O)O)NC(=O)[C@H](C)NC(=O)[C@@H](N)Cc1cnc[nH]1)[C@@H](C)O)[C@@H](C)O)C(C)C)C(=O)N[C@@H](CCC(=O)O)C(=O)N[C@@H](Cc1ccccc1)C(=O)N[C@H](C(=O)N[C@@H](C)C(=O)N[C@@H](Cc1c[nH]c2ccccc12)C(=O)N[C@@H](CC(C)C)C(=O)N[C@H](C(=O)N[C@@H](CCCNC(=N)N)C(=O)NCC(=O)N[C@@H](CCCNC(=N)N)C(=O)NCC(=O)O)C(C)C)[C@@H](C)CC)C(=O)O [liraglutide]
aggregation and drug polymer fiber formation [1]: prone to aggregation and even form drug polymer fibers
